# Results: PubChem BioAssay AID2060505 (Molecular Pharmacology Branch, DTP, NCI, 2025)
# Tested on: 633275-114-R-J1-PDC complex spheroids, viability
# Assay: Anticancer human tumor 633275-114-R-J1-PDC patient-derived endometrial adenocarcinoma cell line growth inhibition [GQUAD]
# Details: for IC50: curve of first compound; for viability, T/C: stronger effect = lower value
# Procedure, shortened: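 Viability of tumor cells grown as complex spheroids with endothelial and stromal cells, exposed to drug combinations. Top concentration at or near clinical Cmax (else 10 microM), diluted in half-log increments.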
# [1] = second compound 0.0316 µM, first compound 0.0316 µM
# [2] = second compound 0.0316 µM, first compound 0.1 µM
# [3] = second compound 0.0316 µM, first compound 0.316 µM
# [4] = second compound 0.0316 µM, first compound 1 µM
# [5] = second compound 0.0316 µM, first compound 3.16 µM
# [6] = second compound 0.0316 µM, first compound 10 µM
# [7] = second compound 0.1 µM, first compound 0.0316 µM
# [8] = second compound 0.1 µM, first compound 0.1 µM
# [9] = second compound 0.1 µM, first compound 0.316 µM
# [10] = second compound 0.1 µM, first compound 1 µM
# [11] = second compound 0.1 µM, first compound 3.16 µM
# [12] = second compound 0.1 µM, first compound 10 µM
# [13] = second compound 0.316 µM, first compound 0.0316 µM
# [14] = second compound 0.316 µM, first compound 0.1 µM
# [15] = second compound 0.316 µM, first compound 0.316 µM
# [16] = second compound 0.316 µM, first compound 1 µM
# [17] = second compound 0.316 µM, first compound 3.16 µM
# [18] = second compound 0.316 µM, first compound 10 µM
# [19] = second compound 1 µM, first compound 0.0316 µM
# [20] = second compound 1 µM, first compound 0.1 µM
# [21] = second compound 1 µM, first compound 0.316 µM
# [22] = second compound 1 µM, first compound 1 µM
# [23] = second compound 1 µM, first compound 3.16 µM
# [24] = second compound 1 µM, first compound 10 µM
# [25] = second compound 3.16 µM, first compound 0.0316 µM
# [26] = second compound 3.16 µM, first compound 0.1 µM
# [27] = second compound 3.16 µM, first compound 0.316 µM
# [28] = second compound 3.16 µM, first compound 1 µM
# [29] = second compound 3.16 µM, first compound 3.16 µM
# [30] = second compound 3.16 µM, first compound 10 µM
# [31] = second compound 10 µM, first compound 0.0316 µM
# [32] = second compound 10 µM, first compound 0.1 µM
# [33] = second compound 10 µM, first compound 0.316 µM
# [34] = second compound 10 µM, first compound 1 µM
# [35] = second compound 10 µM, first compound 3.16 µM
# [36] = second compound 10 µM, first compound 10 µM
# 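Also: spheroids exposed to the agents for seven days.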
# 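For viability, T/C in this document: percent of DMSO vehicle control viability which is 100%.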
smiles,measurement,setting,value
CC1COCCN1c1cc(C2(S(C)(=N)=O)CC2)nc(-c2ccnc3[nH]ccc23)n1 (stereo unspecified) + CN(C)c1ccc(Nc2c3ccc(NC(=O)CCN4CCCC4)cc3nc3cc(NC(=O)CCN4CCCC4)ccc23)cc1,IC50,second compound 0.0316 µM,3490 nM
same,IC50,second compound 0.1 µM,4430 nM
same,IC50,second compound 0.316 µM,3810 nM
same,IC50,second compound 1 µM,2780 nM
same,IC50,second compound 3.16 µM,3050 nM
same,IC50,second compound 10 µM,< 31.6 nM
same,"viability, T/C",[1],101%
same,"viability, T/C",[2],103%
same,"viability, T/C",[3],103%
same,"viability, T/C",[4],74.2%
same,"viability, T/C",[5],54.6%
same,"viability, T/C",[6],34.9%
same,"viability, T/C",[7],115%
same,"viability, T/C",[8],96.1%
same,"viability, T/C",[9],97.1%
same,"viability, T/C",[10],84.6%
same,"viability, T/C",[11],53.1%
same,"viability, T/C",[12],34.5%
same,"viability, T/C",[13],109%
same,"viability, T/C",[14],94.7%
same,"viability, T/C",[15],101%
same,"viability, T/C",[16],82.9%
same,"viability, T/C",[17],52.8%
same,"viability, T/C",[18],35.4%
same,"viability, T/C",[19],98%
same,"viability, T/C",[20],87.8%
same,"viability, T/C",[21],95.4%
same,"viability, T/C",[22],70.1%
same,"viability, T/C",[23],49%
same,"viability, T/C",[24],33.7%
same,"viability, T/C",[25],86.3%
same,"viability, T/C",[26],85.1%
same,"viability, T/C",[27],84.4%
same,"viability, T/C",[28],66.9%
same,"viability, T/C",[29],50.7%
same,"viability, T/C",[30],32.8%
same,"viability, T/C",[31],37%
same,"viability, T/C",[32],38.2%
same,"viability, T/C",[33],36%
same,"viability, T/C",[34],32.6%
same,"viability, T/C",[35],28%
same,"viability, T/C",[36],19.9%
Nc1ccn(C2OC(CO)C(O)C2(F)F)c(=O)n1 (stereo unspecified) + CN(C)c1ccc(Nc2c3ccc(NC(=O)CCN4CCCC4)cc3nc3cc(NC(=O)CCN4CCCC4)ccc23)cc1,IC50,second compound 0.0316 µM,< 31.6 nM
same,IC50,second compound 0.1 µM,< 31.6 nM
same,IC50,second compound 0.316 µM,< 31.6 nM
same,IC50,second compound 1 µM,< 31.6 nM
same,IC50,second compound 3.16 µM,< 31.6 nM
same,IC50,second compound 10 µM,< 31.6 nM
same,"viability, T/C",[1],27.4%
same,"viability, T/C",[2],20.1%
same,"viability, T/C",[3],23.8%
same,"viability, T/C",[4],23.6%
same,"viability, T/C",[5],20.7%
same,"viability, T/C",[6],20.5%
same,"viability, T/C",[7],27.1%
same,"viability, T/C",[8],20.7%
same,"viability, T/C",[9],24%
same,"viability, T/C",[10],22.4%
same,"viability, T/C",[11],21.5%
same,"viability, T/C",[12],19.3%
same,"viability, T/C",[13],29.6%
same,"viability, T/C",[14],21%
same,"viability, T/C",[15],25.6%
same,"viability, T/C",[16],22.9%
same,"viability, T/C",[17],19.7%
same,"viability, T/C",[18],17.7%
same,"viability, T/C",[19],27.7%
same,"viability, T/C",[20],20.1%
same,"viability, T/C",[21],22%
same,"viability, T/C",[22],21.1%
same,"viability, T/C",[23],22.4%
same,"viability, T/C",[24],19.6%
same,"viability, T/C",[25],24.6%
same,"viability, T/C",[26],20.6%
same,"viability, T/C",[27],19.3%
same,"viability, T/C",[28],18.6%
same,"viability, T/C",[29],20.6%
same,"viability, T/C",[30],18.6%
same,"viability, T/C",[31],12.9%
same,"viability, T/C",[32],11.6%
same,"viability, T/C",[33],11.7%
same,"viability, T/C",[34],11.7%
same,"viability, T/C",[35],11%
same,"viability, T/C",[36],9%
CC1COCCN1c1cc(-c2ccnn2C)c2ccnc(-c3ccn[nH]3)c2n1 (stereo unspecified) + CN(C)c1ccc(Nc2c3ccc(NC(=O)CCN4CCCC4)cc3nc3cc(NC(=O)CCN4CCCC4)ccc23)cc1,IC50,second compound 0.0316 µM,136 nM
same,IC50,second compound 0.1 µM,163 nM
same,IC50,second compound 0.316 µM,175 nM
same,IC50,second compound 1 µM,144 nM
same,IC50,second compound 3.16 µM,90.5 nM
same,IC50,second compound 10 µM,< 31.6 nM
same,"viability, T/C",[1],77%
same,"viability, T/C",[2],54.4%
same,"viability, T/C",[3],37.3%
same,"viability, T/C",[4],26.1%
same,"viability, T/C",[5],18%
same,"viability, T/C",[6],18.4%
same,"viability, T/C",[7],92.4%
same,"viability, T/C",[8],59.6%
same,"viability, T/C",[9],37.1%
same,"viability, T/C",[10],24.8%
same,"viability, T/C",[11],18.9%
same,"viability, T/C",[12],18.9%
same,"viability, T/C",[13],82.2%
same,"viability, T/C",[14],61.1%
same,"viability, T/C",[15],37.7%
same,"viability, T/C",[16],25.9%
same,"viability, T/C",[17],19.4%
same,"viability, T/C",[18],14.9%
same,"viability, T/C",[19],74.1%
same,"viability, T/C",[20],55.2%
same,"viability, T/C",[21],38.3%
same,"viability, T/C",[22],23.5%
same,"viability, T/C",[23],18.1%
same,"viability, T/C",[24],16.2%
same,"viability, T/C",[25],60.3%
same,"viability, T/C",[26],49.6%
same,"viability, T/C",[27],33.4%
same,"viability, T/C",[28],22.2%
same,"viability, T/C",[29],15.8%
same,"viability, T/C",[30],11.4%
same,"viability, T/C",[31],30.3%
same,"viability, T/C",[32],23.5%
same,"viability, T/C",[33],15.9%
same,"viability, T/C",[34],12.5%
same,"viability, T/C",[35],10.4%
same,"viability, T/C",[36],9.22%
